The values below are quoted from earlier work in PMC10817097, “Caffeic Acid Phosphanium Derivatives: Potential Selective Antitumor, Antimicrobial and Antiprotozoal Agents” (International Journal of Molecular Sciences, 2024).

Common to all, as to design: method as in PMID 36771693
Data set [1] has as its system HeLa (human cervical adenocarcinoma). The settings on record: standard; cited from earlier work.
Data set [2] has as its system HCT116 (human colorectal adenocarcinoma). The settings on record: HCT116, standard; cited from earlier work.
Data set [3] concerns MDA-MB-231 (human mammary gland adenocarcinoma). The settings on record: MDA-MB-231, standard; cited from earlier work.
The test system of data set [4] is MCF-7 (human breast adenocarcinoma). The settings on record: MCF-7, standard; cited from earlier work.
Data set [5] deals with A2058 (human metastatic melanoma). The settings on record: A2058, standard; cited from earlier work.
For data set [6], the system named is PANC-1 (human pancreatic adenocarcinoma). The settings on record: PANC-1, standard; cited from earlier work.
The test system of data set [7] is Jurkat (human leukemic T cell lymphoma). The settings on record: standard; cited from earlier work.
Data set [8] concerns NIH 3T3 (murine fibroblasts). The settings on record: NIH 3T3 control cells, standard; cited from earlier work.
For data set [9], the system named is MCF-10A cell line (human mammary gland epithelial cells). The settings on record: MCF-10A control cells, standard; cited from earlier work.

With `N.N.[Cl][Pt][Cl]` [CisPt, cisplatin], the IC50 (in general, the concentration needed to halve the response being measured) in data set [1] was 35.4 µM; in data set [2] it was 7.4 µM; in [3] it was 7.1 µM; in [4], 29.7 µM; in data set [5] it was 21.5 µM; in data set [6], 16.5 µM. The IC50 in data set [7] was 6.3 µM; in [8] it was 40.6 µM; in data set [9], 25.9 µM.
